Test results reported in the supplement of paper PMC10307832.

Assays:
Assay in all cases: relative viability (nuclei count vs DMSO), 5 days (fraction); higher = more cells survive
BAY61-3606 + Luminespib = compound: COC1=C(C=C(C=C1)C2=CC3=NC=CN3C(=N2)NC4=C(C=CC=N4)C(=O)N)OC [BAY61-3606] + CCNC(=O)c1noc(-c2cc(C(C)C)c(O)cc2O)c1-c1ccc(CN2CCOCC2)cc1 [Luminespib] (partner 0.01 µM)
How it was run: (§1)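 Lung cancer cell lines, seeded in 1536-well plates, were treated the following day by pin tool with a single drug or with five library-drug doses (not always all listed) in √10 steps on top of a fixed anchor-drug dose. Cells were fixed and nuclei stained in one step after 5 days, and nuclei were counted. Relative viability is the nuclei count for treated wells divided by that for vehicle wells, reported as medians of duplicate plates.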

BAY61-3606 + Phenformin = compound: COC1=C(C=C(C=C1)C2=CC3=NC=CN3C(=N2)NC4=C(C=CC=N4)C(=O)N)OC [BAY61-3606] + N=C(N)NC(=N)NCCc1ccccc1 [Phenformin] (partner 250 µM)
How it was run: as §1

Doxorubicin + Luminespib = compound: COc1cccc2c1C(=O)c1c(O)c3c(c(O)c1C2=O)C[C@@](O)(C(=O)CO)C[C@@H]3O[C@H]1C[C@H](N)[C@H](O)[C@H](C)O1 [Doxorubicin] + CCNC(=O)c1noc(-c2cc(C(C)C)c(O)cc2O)c1-c1ccc(CN2CCOCC2)cc1 [Luminespib] (partner 0.01 µM)
How it was run: as §1

Doxorubicin + Phenformin = compound: COc1cccc2c1C(=O)c1c(O)c3c(c(O)c1C2=O)C[C@@](O)(C(=O)CO)C[C@@H]3O[C@H]1C[C@H](N)[C@H](O)[C@H](C)O1 [Doxorubicin] + N=C(N)NC(=N)NCCc1ccccc1 [Phenformin] (partner 250 µM)
How it was run: as §1

For UMC-11, the relative viability (BAY61-3606 + Luminespib; first compound 0.02 µM) was 1.12, the relative viability (BAY61-3606 + Luminespib; first compound 0.06325 µM) was 1.17 and the relative viability (BAY61-3606 + Luminespib; first compound 0.2 µM) was 1.08. The relative viability (BAY61-3606 + Luminespib; first compound 0.6325 µM) was 1.05, the relative viability (BAY61-3606 + Luminespib; first compound 2 µM) was 0.921 and the relative viability (BAY61-3606 + Phenformin; first compound 0.02 µM) was 0.333. The relative viability (BAY61-3606 + Phenformin; first compound 0.06325 µM) was 0.339, the relative viability (BAY61-3606 + Phenformin; first compound 0.2 µM) was 0.334 and the relative viability (BAY61-3606 + Phenformin; first compound 0.6325 µM) was 0.332. It also gave a relative viability (BAY61-3606 + Phenformin; first compound 2 µM) of 0.298, a relative viability (Doxorubicin + Luminespib; first compound 0.001 µM) of 0.998 and a relative viability (Doxorubicin + Luminespib; first compound 0.003162 µM) of 1.12. The relative viability (Doxorubicin + Luminespib; first compound 0.01 µM) was 0.943, the relative viability (Doxorubicin + Luminespib; first compound 0.03162 µM) was 0.642 and the relative viability (Doxorubicin + Luminespib; first compound 0.1 µM) was 0.601. It also gave a relative viability (Doxorubicin + Phenformin; first compound 0.001 µM) of 0.307, a relative viability (Doxorubicin + Phenformin; first compound 0.003162 µM) of 0.247 and a relative viability (Doxorubicin + Phenformin; first compound 0.01 µM) of 0.313. For the same cell line, the relative viability (Doxorubicin + Phenformin; first compound 0.03162 µM) was 0.207 and the relative viability (Doxorubicin + Phenformin; first compound 0.1 µM) was 0.233.
